Where two headings read alike, the source gives them in different places.
Legend:
human CTPS1 versus CTPS2 = test: Human CTPS1 versus CTPS2 selectivity assessment by RapidFire/MS analysis; type: biochemical
Outline: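 Full-length human CTPS1 or CTPS2 was preincubated 10 min with compound in HEPES pH 8.0 at 25 °C. The 2× substrate mix was, for CTPS1, ATP 0.3, UTP 0.2, GTP 0.07 and glutamine 0.1 mM; for CTPS2, ATP 0.1, UTP 0.04, GTP 0.03 and glutamine 0.1 mM. The CTP/labelled-CTP ratio by RapidFire MS gave IC50, and selectivity was a fold ratio.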

human CTPS1 = biological target: T1, human CTPS1 (Homo sapiens, UniProt P17812); test: Human CTPS1 enzyme inhibition (ADP-Glo Max assay); type: biochemical; conditions: read-out: CTPS1 (Human CTPS1 Enzyme Inhibition data grouped by potency range, IC50)
T1 construct: purchased Proteros biostructures GmbH
T1 sequence (P17812 1-591): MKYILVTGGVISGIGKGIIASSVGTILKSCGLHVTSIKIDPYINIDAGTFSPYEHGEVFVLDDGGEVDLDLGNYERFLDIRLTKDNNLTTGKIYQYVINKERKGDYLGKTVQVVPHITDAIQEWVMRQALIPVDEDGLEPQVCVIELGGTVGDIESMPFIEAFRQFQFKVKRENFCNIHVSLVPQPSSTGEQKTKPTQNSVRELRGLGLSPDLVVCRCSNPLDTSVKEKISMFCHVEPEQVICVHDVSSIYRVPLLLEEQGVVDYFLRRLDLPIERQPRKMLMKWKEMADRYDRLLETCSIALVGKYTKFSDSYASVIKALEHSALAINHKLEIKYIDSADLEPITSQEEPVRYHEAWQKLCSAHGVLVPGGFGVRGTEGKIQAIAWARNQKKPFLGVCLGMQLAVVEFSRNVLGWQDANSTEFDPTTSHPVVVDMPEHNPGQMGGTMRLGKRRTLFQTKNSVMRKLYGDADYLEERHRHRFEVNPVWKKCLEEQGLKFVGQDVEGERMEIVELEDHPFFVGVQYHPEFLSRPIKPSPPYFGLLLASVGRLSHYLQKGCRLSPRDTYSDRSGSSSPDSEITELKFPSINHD
Outline: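 Full-length FLAG-His-tagged human CTPS1 and compound were preincubated 10 min at 25 °C in 50 mM Tris pH 8.0, 10 mM MgCl2, 0.01% Tween-20, 2 mM L-cysteine. Substrate mix: ATP 0.31 mM, GTP 0.034 mM, UTP 0.48 mM, glutamine 0.186 mM; linear-phase reaction at 25 °C. ADP-Glo Max luminescence; IC50 from inhibition curve.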

| Structure (SMILES) | IC50 (human CTPS1; Table 24, ADP-Glo Max assay) [nM] | Selectivity (fold selectivity between CTPS1 and CTPS2) (human CTPS1 versus CTPS2; Table 27) | also measured |
| --- | --- | --- | --- |
| CC(C)Oc1cncc(-c2ccc(C(=O)NC(C)(C)c3cncc(NS(=O)(=O)C4CC4)n3)c(F)c2)n1 [Example P221] |  |  | Selectivity (fold selectivity between CTPS1 and CTPS2) (human CTPS1 versus CTPS2; Table 26): + (2-30 fold (+)); IC50 (human CTPS1; Table 23, ADP-Glo Max assay): 100 to 1000 nM |
| CC(C)(NC(=O)c1ccc(-c2cncc(C(F)(F)F)n2)cc1)c1cncc(NS(=O)(=O)C2CC2)n1 [Example P222] |  |  | Selectivity (fold selectivity between CTPS1 and CTPS2) (human CTPS1 versus CTPS2; Table 26): + (2-30 fold (+)); IC50 (human CTPS1; Table 23, ADP-Glo Max assay): 100 to 1000 nM |
| CCOc1cncc(-c2ccc(NC(=O)C3(c4ccnc(NS(=O)(=O)C5CC5)n4)CCC4(CC3)OCCO4)nc2)n1 [Example P244, 8-(2-(cyclopropanesulfonamido)pyrimidin-4-yl)-N-(5-(6-ethoxypyrazin-2-yl)pyridin-2-yl)-1,4-dioxaspiro[4.5]decane-8-carboxamide] | ≤ 100 | +++ (>60 fold (+++)) |  |
| CCOc1cncc(-c2ccc(NC(=O)C3(c4ccnc(NS(=O)(=O)C5CC5)n4)CCN(S(C)(=O)=O)CC3)nc2)n1 [Example P251] | ≤ 100 | +++ (>60 fold (+++)) |  |
| CCOc1cncc(-c2ccc(NC(=O)C3(c4ccnc(NS(=O)(=O)CC#N)n4)CCOCC3)nc2)n1 [Example P287, 4-(2-((cyanomethyl)sulfonamido)pyrimidin-4-yl)-N-(5-(6-ethoxypyrazin-2-yl)pyridin-2-yl)tetrahydro-2H-pyran-4-carboxamide] |  |  | CTPS1 (Selectivity data) (human CTPS1 versus CTPS2; Table 28, compounds where R1 is substituted by CN): +++ (>60 fold (+++)); IC50 (human CTPS1; Table 25, compounds where R1 is substituted by CN): ≤ 100 nM |

Second part, led by results:

| IC50 (human CTPS1; Table 24, ADP-Glo Max assay) [nM] | Structure (SMILES) | Selectivity (fold selectivity between CTPS1 and CTPS2) (human CTPS1 versus CTPS2; Table 27) | also measured |
| --- | --- | --- | --- |
| ≤ 100 | CCOc1cncc(-c2ccc(NC(=O)C3(c4ccnc(NS(=O)(=O)C5CC5)n4)CCC(=O)CC3)nc2)n1 [Example P226, 1-(2-(Cyclopropanesulfonamido)pyrimidin-4-yl)-N-(5-(6-ethoxypyrazin-2-yl)pyridin-2-yl)-4-oxocyclohexanecarboxamide] | +++ (>60 fold (+++)) |  |
| ≤ 100 | CCOc1cncc(-c2ccc(NC(=O)C3(c4ccnc(NS(=O)(=O)C5CC5)n4)CCC(F)(F)CC3)nc2)n1 [Example P242] | +++ (>60 fold (+++)) |  |

From patent US20230002352A1, “SULFONAMIDE DERIVATIVES AS CTPS1 INHIBITORS” (Step Pharma S.A.S., priority 2019, published 2023)
